Assay results reported in article PMC12042115 (mLife, 2025).
Like-named read-outs stand apart in the source and are kept apart here.

Tested on: wild‐type BCG cells
Assay type: cell-based, M. bovis BCG
Conditions: for Mean_Ratio (GDI5755_3d vs DMSO_3d): down-regulated, 3 d; for Mean Ratio: GDI5755_2d vs DMSO_2d; for Mean Ratio / Mean Ratio (GDI5755_2d vs DMSO_2d): up-regulated; for Mean Ratio (GDI5755_2d vs DMSO_2d): 2d

Compound: O=C(Oc1ccc(Cl)cc1)c1ccc(N2CCOCC2)c([N+](=O)[O-])c1 [GDI‐5755]
- Mean_Ratio (GDI5755_3d vs DMSO_3d) (protein A0A0H3M2P5, BCG_0207 (Rv0170), MCE-family protein mce1B): 0.7
- Mean Ratio (protein A0A0H3M2Q0 Probable conserved mce associated membrane protein): 1.29
- Mean Ratio (protein A0A0H3M2Q5 Probable conserved transmembrane protein): 1.31
- Mean Ratio (GDI5755_2d vs DMSO_2d) (protein A0A0H3M2T8 Possible conserved membrane protein mmpS5): 1.38
- Mean Ratio (protein A0A0H3M3A7 3-hydroxyacyl-CoA dehydrogenase): 1.27
- Mean_Ratio (GDI5755_3d vs DMSO_3d) (protein A0A0H3M3B6, BCG_1227 (Rv1165), Large ribosomal subunit assembly factor BipA): 0.749
- Mean_Ratio (GDI5755_3d vs DMSO_3d) (protein A0A0H3M3D2, BCG_0932 (Rv0880), Possible transcriptional regulatory protein (Possibly marR-family)): 0.738
- Mean_Ratio (GDI5755_3d vs DMSO_3d) (protein A0A0H3M3H3, BCG_1314 (Rv1254), Probable acyltransferase): 0.748
- Mean Ratio (protein A0A0H3M3I2 Uncharacterized protein): 1.28
- Mean Ratio (protein A0A0H3M3J3 Probable periplasmic oligopeptide-binding lipoprotein oppA): 1.27
- Mean Ratio (GDI5755_2d vs DMSO_2d) (protein A0A0H3M3L0 Conserved hypothetical transmembrane protein): 1.38
- Mean Ratio (protein A0A0H3M3S8 Lipoarabinomannan carrier protein LprG): 1.31
- Mean Ratio (protein A0A0H3M3T4 Possible conserved membrane protein): 1.31
- Mean Ratio (protein A0A0H3M3X9 Probable cation transporter P-type atpase D ctpD): 1.31
- Mean_Ratio (GDI5755_3d vs DMSO_3d) (protein A0A0H3M4A0, BCG_1633 (Rv1595), L-aspartate oxidase): 0.7
- Mean Ratio (GDI5755_2d vs DMSO_2d) (protein A0A0H3M4G0 Lipoprotein lprB): 1.35
- Mean_Ratio (GDI5755_3d vs DMSO_3d) (protein A0A0H3M4I9, BCG_1379c (Rv1318c), Possible adenylate cyclase): 0.7
- Mean_Ratio (GDI5755_3d vs DMSO_3d) (protein A0A0H3M4L2, BCG_1760c (Rv1721c), Antitoxin VapB12): 0.7
- Mean Ratio (protein A0A0H3M4W6 DUF1490 family protein): 1.26
- Mean_Ratio (GDI5755_3d vs DMSO_3d) (protein A0A0H3M5A9, BCG_1670c (Rv1632c), DUF402 domain-containing protein): 0.74
- Mean Ratio (GDI5755_2d vs DMSO_2d) (protein A0A0H3M5C0 RNA polymerase sigma factor): 1.33
- Mean_Ratio (GDI5755_3d vs DMSO_3d) (protein A0A0H3M5G5, BCG_1251, alternative RNA polymerase sigma factor sigI): 0.7
- Mean Ratio (protein A0A0H3M5I2 Uncharacterized protein): 1.28
- Mean Ratio (protein A0A0H3M5J1 Probable serine protease htrA): 1.26
- Mean Ratio (GDI5755_2d vs DMSO_2d) (protein A0A0H3M5K5 DUF4129 domain-containing protein): 1.38
- Mean_Ratio (GDI5755_3d vs DMSO_3d) (protein A0A0H3M5K7, BCG_1305c (Rv1245c), Probable short-chain type dehydrogenase/reductase): 0.7
- Mean Ratio (GDI5755_2d vs DMSO_2d) (protein A0A0H3M5K8 Methylenetetrahydrofolate reductase): 1.33
- Mean_Ratio (GDI5755_3d vs DMSO_3d) (protein A0A0H3M5L3, BCG_1311c (Rv1251c), Uncharacterized protein): 0.76
- Mean Ratio (protein A0A0H3M5L8 1-acylglycerol-3-phosphate O-acyltransferase): 1.26
- Mean Ratio (GDI5755_2d vs DMSO_2d) (protein A0A0H3M5V5 Possible flavoprotein): 1.33
- Mean Ratio (GDI5755_2d vs DMSO_2d) (protein A0A0H3M5V7 Possible transmembrane protein): 1.32
- Mean Ratio (protein A0A0H3M5V9 DUF3145 domain-containing protein): 1.32
- Mean Ratio (GDI5755_2d vs DMSO_2d) (protein A0A0H3M6F8 Probable 'component linked with the assembly of cytochrome' transport transmembrane ATP-binding protein ABC transporter cydC): 1.33
- Mean_Ratio (GDI5755_3d vs DMSO_3d) (protein A0A0H3M6P3, BCG_1740c (Rv1702c), HNH nuclease domain-containing protein): 0.759
- Mean Ratio (protein A0A0H3M6T8 Uncharacterized protein): 1.25
- Mean Ratio (GDI5755_2d vs DMSO_2d) (protein A0A0H3M7A1 Probable conserved membrane protein): 1.33
- Mean Ratio (protein A0A0H3M7A2 (2E)-enoyl-[ACP] glycyltransferase): 1.27
- Mean Ratio (protein A0A0H3M7D2 Quinone oxidoreductase): 1.25
- Mean_Ratio (GDI5755_3d vs DMSO_3d) (protein A0A0H3M7E6, BCG_0206 (Rv0169), MCE-family protein mce1A): 0.7
- Mean_Ratio (GDI5755_3d vs DMSO_3d) (protein A0A0H3M7F0, BCG_0211 (Rv0174), MCE-family protein mce1F): 0.7
- Mean Ratio (GDI5755_2d vs DMSO_2d) (protein A0A0H3M7F7 Hemerythrin-like domain-containing protein): 1.39
- Mean Ratio (protein A0A0H3M7J3 UspA domain-containing protein): 1.27
- Mean Ratio (protein A0A0H3M7L3 Succinate dehydrogenase [membrane anchor subunit]): 1.25
- Mean Ratio (protein A0A0H3M7L4 Possible transmembrane protein dedA): 1.29
- Mean Ratio (protein A0A0H3M7L9 Probable arsenic-transport integral membrane protein arsC): 1.30
- Mean Ratio (protein A0A0H3M7M0 Posible transcriptional regulatory protein): 1.27
- Mean_Ratio (GDI5755_3d vs DMSO_3d) (protein A0A0H3M7M6, BCG_2876 (Rv2856), Nickel/cobalt efflux system): 0.7
- Mean Ratio (protein A0A0H3M7N4 Possible secreted protease): 1.32
- Mean_Ratio (GDI5755_3d vs DMSO_3d) (protein A0A0H3M7R0, BCG_0355, Possible beta-1,3-glucanase): 0.7
- Mean Ratio (protein A0A0H3M7R4 Probable membrane protein): 1.30
- Mean_Ratio (GDI5755_3d vs DMSO_3d) (protein A0A0H3M7T2, BCG_2131, Uncharacterized protein): 0.742
- Mean_Ratio (GDI5755_3d vs DMSO_3d) (protein A0A0H3M7W0, BCG_2977 (Rv2956), Methyltransferase FkbM domain-containing protein): 0.7
- Mean Ratio (protein A0A0H3M7X0 Probable conserved transmembrane protein): 1.28
- Mean Ratio (protein A0A0H3M7X3 Probable conserved transmembrane protein): 1.32
- Mean_Ratio (GDI5755_3d vs DMSO_3d) (protein A0A0H3M7Y1, BCG_0442 (Rv0404), Probable fatty-acid-CoA ligase fadD30): 0.7
- Mean_Ratio (GDI5755_3d vs DMSO_3d) (protein A0A0H3M7Y6, BCG_2210 (Rv2194), Cytochrome bc1 complex cytochrome c subunit, qcrC): 0.747
- Mean Ratio (protein A0A0H3M8J5 Protein translocase subunit SecE): 1.31
- Mean Ratio (GDI5755_2d vs DMSO_2d) (protein A0A0H3M8K7 DUF4333 domain-containing protein): 1.33
- Mean Ratio (protein A0A0H3M8L8 Probable FeIII-dicitrate-binding periplasmic lipoprotein fecB): 1.27
- Mean Ratio (protein A0A0H3M8M0 Conserved hypothetical threonine rich protein): 1.26
- Mean Ratio (protein A0A0H3M8Q9 Probable short-chain type dehydrogenase/reductase): 1.27
- Mean_Ratio (GDI5755_3d vs DMSO_3d) (protein A0A0H3M8T3, BCG_3410 (Rv3340), Probable O-acetylhomoserine sulfhydrylase metC): 0.7
- Mean Ratio (protein A0A0H3M8V5 Possible transcriptional regulatory protein (Probably tetR-family)): 1.29
- Mean_Ratio (GDI5755_3d vs DMSO_3d) (protein A0A0H3M8X7, BCG_3431 (Rv3359), Possible oxidoreductase): 0.737
- Mean Ratio (GDI5755_2d vs DMSO_2d) (protein A0A0H3M8X9 Probable oxidase): 1.33
- Mean_Ratio (GDI5755_3d vs DMSO_3d) (protein A0A0H3M8Y4, BCG_3436c (Rv3364c), Roadblock/LAMTOR2 domain-containing protein/Serine protease inhibitor): 0.75
